Reference: ChEMBL document CHEMBL3885881, “DrugMatrix”

Species: Rattus norvegicus
Test: DrugMatrix - Regimen: Daily Repeat
Assay type: toxicity, organism-based, Sprague-Dawley
Set-up: regimen Daily Repeat, gender Male, age 6-8 weeks
Settings: in vivo, po, route oral GAVAGE, vehicle .5 % CMC; for BASOPHIL / EOSINOPHIL / ERYTHROCYTE COUNT / HEMATOCRIT / HEMOGLOBIN / LEUKOCYTE COUNT / LYMPHOCYTE / MEAN CORPUSCULAR HEMOGLOBIN / MEAN CORPUSCULAR HEMOGLOBIN CONCENTRATION / MEAN CORPUSCULAR VOLUME / MONOCYTE / NEUTROPHIL / PLATELET COUNT: tissue Blood; for ALANINE AMINOTRANSFERASE / ALBUMIN / ALKALINE PHOSPHATASE / ASPARTATE AMINOTRANSFERASE / BLOOD UREA NITROGEN / CHLORIDE / CHOLESTEROL / CREATINE PHOSPHOKINASE / CREATININE / GLUCOSE / PHOSPHORUS / POTASSIUM / SODIUM / TOTAL BILIRUBIN / TOTAL PROTEIN: tissue Plasma
[1] = 69 mg/kg, 72 h, dose level High, time 3 day
[2] = 69 mg/kg, 120 h, dose level High, time 5 day
[3] = […], 72 h, dose 6.9 mg/Kg, dose level Low, time 3 day
[4] = […], 120 h, dose 6.9 mg/Kg, dose level Low, time 5 day
[5] = 0 mg/kg, 72 h, dose level Control, time 3 day
[6] = 0 mg/kg, 120 h, dose level Control, time 5 day

`COc1ccc(Cc2nccc3cc(OC)c(OC)cc23)cc1OC` [PAPAVERINE] was tested, and the BASOPHIL [1] was 0%, the EOSINOPHIL [1] was 0.33% and the “ERYTHROCYTE COUNT” value [1] was 6.13 x10E6/uL. For the same molecule, the HEMATOCRIT [1] was 36.97%, the HEMOGLOBIN [1] was 14.43 G/DL and the “LEUKOCYTE COUNT” value [1] was 10.73 x10E3/uL. For the same molecule, the LYMPHOCYTE [1] was 85%, the “MEAN CORPUSCULAR HEMOGLOBIN” value [1] was 23.67 pg and the “MEAN CORPUSCULAR HEMOGLOBIN CONCENTRATION” value [1] was 39.07 G/DL. For the same molecule, the “MEAN CORPUSCULAR VOLUME” value [1] was 60.5 fL, the MONOCYTE [1] was 1% and the NEUTROPHIL [1] was 13.67%. For the same molecule, the “PLATELET COUNT” value [1] was 1169 x10E3/uL, the “ALANINE AMINOTRANSFERASE” value [1] was 36.33 u/L and the ALBUMIN [1] was 3.83 G/DL. For the same molecule, the “ALKALINE PHOSPHATASE” value [1] was 289.67 u/L, the “ASPARTATE AMINOTRANSFERASE” value [1] was 57.33 u/L and the “BLOOD UREA NITROGEN” value [1] was 13.67 mg/dL. For the same molecule, the CHLORIDE [1] was 107.67 MEQ/L, the CHOLESTEROL [1] was 66.33 mg/dL and the “CREATINE PHOSPHOKINASE” value [1] was 129.67 u/L. It also gave a CREATININE [1] of 0.5 mg/dL, a GLUCOSE [1] of 195.67 mg/dL and a PHOSPHORUS [1] of 11.97 mg/dL. For the same molecule, the POTASSIUM [1] was 6.9 MEQ/L, the SODIUM [1] was 152.33 MEQ/L and the “TOTAL BILIRUBIN” value [1] was 0.3 mg/dL. The “TOTAL PROTEIN” value [1] was 6.13 G/DL, the BASOPHIL [2] was 0% and the EOSINOPHIL [2] was 0%. The “ERYTHROCYTE COUNT” value [2] was 5.8 x10E6/uL, the HEMATOCRIT [2] was 35.07% and the HEMOGLOBIN [2] was 14.43 G/DL. For the same molecule, the “LEUKOCYTE COUNT” value [2] was 15.23 x10E3/uL, the LYMPHOCYTE [2] was 84.33% and the “MEAN CORPUSCULAR HEMOGLOBIN” value [2] was 24.97 pg. For the same molecule, the “MEAN CORPUSCULAR HEMOGLOBIN CONCENTRATION” value [2] was 41.27 G/DL, the “MEAN CORPUSCULAR VOLUME” value [2] was 60.43 fL and the MONOCYTE [2] was 3.67%. For the same molecule, the NEUTROPHIL [2] was 12%, the “PLATELET COUNT” value [2] was 973 x10E3/uL and the “ALANINE AMINOTRANSFERASE” value [2] was 34 u/L. For the same molecule, the ALBUMIN [2] was 3.67 G/DL, the “ALKALINE PHOSPHATASE” value [2] was 334 u/L and the “ASPARTATE AMINOTRANSFERASE” value [2] was 56.33 u/L. For the same molecule, the “BLOOD UREA NITROGEN” value [2] was 12.33 mg/dL, the CHLORIDE [2] was 105.33 MEQ/L and the CHOLESTEROL [2] was 57.67 mg/dL. The “CREATINE PHOSPHOKINASE” value [2] was 142.67 u/L, the CREATININE [2] was 0.57 mg/dL and the GLUCOSE [2] was 174.33 mg/dL. The PHOSPHORUS [2] was 11.33 mg/dL, the POTASSIUM [2] was 7 MEQ/L and the SODIUM [2] was 149.67 MEQ/L. For the same molecule, the “TOTAL BILIRUBIN” value [2] was 0.43 mg/dL, the “TOTAL PROTEIN” value [2] was 5.8 G/DL and the BASOPHIL [3] was 0%. For the same molecule, the EOSINOPHIL [3] was 0.33%, the “ERYTHROCYTE COUNT” value [3] was 5.94 x10E6/uL and the HEMATOCRIT [3] was 35.17%. For the same molecule, the HEMOGLOBIN [3] was 14.13 G/DL, the “LEUKOCYTE COUNT” value [3] was 12.43 x10E3/uL and the LYMPHOCYTE [3] was 87.33%. The “MEAN CORPUSCULAR HEMOGLOBIN” value [3] was 23.8 pg, the “MEAN CORPUSCULAR HEMOGLOBIN CONCENTRATION” value [3] was 40.2 G/DL and the “MEAN CORPUSCULAR VOLUME” value [3] was 59.13 fL. The MONOCYTE [3] was 2.33%, the NEUTROPHIL [3] was 10% and the “PLATELET COUNT” value [3] was 1083 x10E3/uL. For the same molecule, the “ALANINE AMINOTRANSFERASE” value [3] was 43.67 u/L, the ALBUMIN [3] was 3.7 G/DL and the “ALKALINE PHOSPHATASE” value [3] was 347.67 u/L. For the same molecule, the “ASPARTATE AMINOTRANSFERASE” value [3] was 64.67 u/L, the “BLOOD UREA NITROGEN” value [3] was 11.67 mg/dL and the CHLORIDE [3] was 107 MEQ/L. For the same molecule, the CHOLESTEROL [3] was 64.33 mg/dL, the “CREATINE PHOSPHOKINASE” value [3] was 170 u/L and the CREATININE [3] was 0.5 mg/dL. For the same molecule, the GLUCOSE [3] was 172 mg/dL, the PHOSPHORUS [3] was 11.1 mg/dL and the POTASSIUM [3] was 6.23 MEQ/L. The SODIUM [3] was 149 MEQ/L, the “TOTAL BILIRUBIN” value [3] was 0.37 mg/dL and the “TOTAL PROTEIN” value [3] was 5.77 G/DL. For the same molecule, the BASOPHIL [4] was 0%, the EOSINOPHIL [4] was 0.33% and the “ERYTHROCYTE COUNT” value [4] was 6.2 x10E6/uL. For the same molecule, the HEMATOCRIT [4] was 37.4%, the HEMOGLOBIN [4] was 15.4 G/DL and the “LEUKOCYTE COUNT” value [4] was 12.83 x10E3/uL. For the same molecule, the LYMPHOCYTE [4] was 87.33%, the “MEAN CORPUSCULAR HEMOGLOBIN” value [4] was 24.87 pg and the “MEAN CORPUSCULAR HEMOGLOBIN CONCENTRATION” value [4] was 41.17 G/DL. For the same molecule, the “MEAN CORPUSCULAR VOLUME” value [4] was 60.33 fL, the MONOCYTE [4] was 1.33% and the NEUTROPHIL [4] was 11%. The “PLATELET COUNT” value [4] was 1006 x10E3/uL, the “ALANINE AMINOTRANSFERASE” value [4] was 35 u/L and the ALBUMIN [4] was 3.73 G/DL. For the same molecule, the “ALKALINE PHOSPHATASE” value [4] was 374.33 u/L, the “ASPARTATE AMINOTRANSFERASE” value [4] was 60.33 u/L and the “BLOOD UREA NITROGEN” value [4] was 12.33 mg/dL. The CHLORIDE [4] was 108.33 MEQ/L, the CHOLESTEROL [4] was 61.33 mg/dL and the “CREATINE PHOSPHOKINASE” value [4] was 131.67 u/L. The CREATININE [4] was 0.6 mg/dL, the GLUCOSE [4] was 168.67 mg/dL and the PHOSPHORUS [4] was 10.03 mg/dL. The POTASSIUM [4] was 6.13 MEQ/L, the SODIUM [4] was 153.67 MEQ/L and the “TOTAL BILIRUBIN” value [4] was 0.33 mg/dL. For the same molecule, the “TOTAL PROTEIN” value [4] was 5.97 G/DL.

For `C[C@]12C/C(=C/O)C(=O)C[C@@H]1CC[C@@H]1[C@@H]2CC[C@@]2(C)[C@H]1CC[C@]2(C)O` [OXYMETHOLONE], the BASOPHIL [5] was 0.68%, the EOSINOPHIL [5] was 0.46% and the “ERYTHROCYTE COUNT” value [5] was 7.15 x10E6/uL. The HEMATOCRIT [5] was 45.44%, the HEMOGLOBIN [5] was 14.1 G/DL and the “LEUKOCYTE COUNT” value [5] was 9.78 x10E3/uL. The LYMPHOCYTE [5] was 84.44%, the “MEAN CORPUSCULAR HEMOGLOBIN” value [5] was 19.72 pg and the “MEAN CORPUSCULAR HEMOGLOBIN CONCENTRATION” value [5] was 31 G/DL. The “MEAN CORPUSCULAR VOLUME” value [5] was 63.66 fL, the MONOCYTE [5] was 2.14% and the NEUTROPHIL [5] was 11.16%. For the same molecule, the “PLATELET COUNT” value [5] was 1378.2 x10E3/uL, the “ALANINE AMINOTRANSFERASE” value [5] was 42.33 u/L and the ALBUMIN [5] was 3.8 G/DL. For the same molecule, the “ALKALINE PHOSPHATASE” value [5] was 388.17 u/L, the “ASPARTATE AMINOTRANSFERASE” value [5] was 68 u/L and the “BLOOD UREA NITROGEN” value [5] was 16.17 mg/dL. For the same molecule, the CHLORIDE [5] was 96.67 MEQ/L, the CHOLESTEROL [5] was 71 mg/dL and the “CREATINE PHOSPHOKINASE” value [5] was 156.17 u/L. For the same molecule, the CREATININE [5] was 0.57 mg/dL, the GLUCOSE [5] was 193.67 mg/dL and the PHOSPHORUS [5] was 11.43 mg/dL. The POTASSIUM [5] was 7 MEQ/L, the SODIUM [5] was 140.33 MEQ/L and the “TOTAL BILIRUBIN” value [5] was 0.48 mg/dL. The “TOTAL PROTEIN” value [5] was 6.8 G/DL, the BASOPHIL [6] was 1.47% and the EOSINOPHIL [6] was 1%. For the same molecule, the “ERYTHROCYTE COUNT” value [6] was 7.12 x10E6/uL, the HEMATOCRIT [6] was 45.47% and the HEMOGLOBIN [6] was 14.1 G/DL. The “LEUKOCYTE COUNT” value [6] was 11.38 x10E3/uL, the LYMPHOCYTE [6] was 82.57% and the “MEAN CORPUSCULAR HEMOGLOBIN” value [6] was 19.82 pg. The “MEAN CORPUSCULAR HEMOGLOBIN CONCENTRATION” value [6] was 31.02 G/DL, the “MEAN CORPUSCULAR VOLUME” value [6] was 63.88 fL and the MONOCYTE [6] was 2.2%. For the same molecule, the NEUTROPHIL [6] was 11.97%, the “PLATELET COUNT” value [6] was 1267 x10E3/uL and the “ALANINE AMINOTRANSFERASE” value [6] was 38 u/L. For the same molecule, the ALBUMIN [6] was 3.72 G/DL, the “ALKALINE PHOSPHATASE” value [6] was 391 u/L and the “ASPARTATE AMINOTRANSFERASE” value [6] was 65.83 u/L. The “BLOOD UREA NITROGEN” value [6] was 14.17 mg/dL, the CHLORIDE [6] was 107.67 MEQ/L and the CHOLESTEROL [6] was 61 mg/dL. The “CREATINE PHOSPHOKINASE” value [6] was 148.33 u/L, the CREATININE [6] was 0.57 mg/dL and the GLUCOSE [6] was 177.17 mg/dL. For the same molecule, the PHOSPHORUS [6] was 12.07 mg/dL, the POTASSIUM [6] was 7.2 MEQ/L and the SODIUM [6] was 151.5 MEQ/L. For the same molecule, the “TOTAL BILIRUBIN” value [6] was 0.58 mg/dL and the “TOTAL PROTEIN” value [6] was 6.72 G/DL.
